Test: recombinant barcode read abundance after kanamycin selection (control-corrected) (log10(CPM+1)); higher = more efficient recombination; sequences stand for … in AGTGCAGAGAAAATCGGCCAGTTTTCTCTGCCTGCAGTCCGCATGCCGT…AGATTTATGCAGCGGACTGCCTTTCTCCCAAAGTGATAAACCGGACAGTATCATGGACCGGTTTTCCCGGTAATCCGTATTTGCAAGGTTGGTTTCACT; site = the 11-nt target
Method in brief: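 Values are log10(CPM+1) from a pooled E. coli screen of targets paired with IS621 bridge RNA target-binding loops. Recombination efficiency here means counts per million of recombinant-junction barcodes, averaged and control-corrected. Plates were chloramphenicol/ampicillin LB agar for the control and chloramphenicol/ampicillin/kanamycin with 0.1 mM IPTG, two replicates each.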
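Also: IS621 recombinase and bridge RNA in Escherichia coli cells.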

Sequence | recombinant barcode read abundance (log10)
GGTTCTTCTTGGGTTCTAACCTGTTGCCT (site GGTTCTTCTAG) | 0.344
GGTTCTTCTTGGGTTCTAACCTGTTGCCT (site GTTTCTTCTAG) | 0.19
GGTTGACCTTGGGTTCTAACCTGTTGCGG (site GGTTGACCTCC) | 1.51
GGTTGACCTTGGGTTCTAACCTGTTGCGG (site GGTTGCCCTCC) | 0.0589
GGTTGACCTTGGGTTCTAACCTGTTGCGG (site GGTTGGCCTCC) | 0.0632
GGTTGACCTTGGGTTCTAACCTGTTGCGG (site GGTTGTCCTCC) | 0.0522
GGTTGCCCTTGGGTTCTAACCTGTTGCGG (site GGTTGACCTCC) | 0.295
GGTTGCCCTTGGGTTCTAACCTGTTGCGG (site GGTTGCCCTCC) | 0.946
GGTTGCCCTTGGGTTCTAACCTGTTGCGG (site GGTTGGCCTCC) | 0.0682
GGTTGCCCTTGGGTTCTAACCTGTTGCGG (site GGTTGTCCTCC) | 0.0903
GGTTGTCCTTGGGTTCTAACCTGTTGCCT (site GGTGGTCCTAG) | 0.253
GGTTGTCCTTGGGTTCTAACCTGTTGCCT (site GGTTGTCCTAG) | 0.328
GGTTGTCCTTGGGTTCTAACCTGTTGCGG (site GGTTGACCTCC) | 0.237
GGTTGTCCTTGGGTTCTAACCTGTTGCGG (site GGTTGCCCTCC) | 0.0684
GGTTGTCCTTGGGTTCTAACCTGTTGCGG (site GGTTGGCCTCC) | 0.109
GGTTGTCCTTGGGTTCTAACCTGTTGCGG (site GGTTGTCCTCC) | 1.2
GGTTGTCCTTGGGTTCTAACCTGTTGCTA (site GATTGTCCTAA) | 0.182
GGTTGTCCTTGGGTTCTAACCTGTTGCTA (site GGTTGTCCTTA) | 0.181
GGTTTAGCTTGGGTTCTAACCTGTTGCTA (site GGTTTAGCTTA) | 0.106
GGTTTAGCTTGGGTTCTAACCTGTTGCTA (site TGTATAGCTTA) | 0.0842
GTAAAACCTTGGGTTCTAACCTGTTGCCT (site ATAAAACCTAG) | 0.281
GTAAAACCTTGGGTTCTAACCTGTTGCCT (site CTAAAACCTAG) | 0.23

Sequence | recombinant barcode read abundance (log10)
GTAAAACCTTGGGTTCTAACCTGTTGCCT (site GTAAAACCTAG) | 1.06
GTAAAACCTTGGGTTCTAACCTGTTGCCT (site TTAAAACCTAG) | 0.266
GTAAACCCTTGGGTTCTAACCTGTTGCGG (site GTAAACCCTCC) | 2.33
GTAAACCCTTGGGTTCTAACCTGTTGCGG (site GTCAACCCTCC) | 0.228
GTAACGACTTGGGTTCTAACCTGTTGCCA (site GTAACGACTTG) | 1.08
GTAACGACTTGGGTTCTAACCTGTTGCCA (site GTGAGGACTTG) | 0.0765
GTAAGTCCTTGGGTTCTAACCTGTTGCAG (site GTAAGAACTCT) | 0.0477
GTAAGTCCTTGGGTTCTAACCTGTTGCAG (site GTAAGTCCTCT) | 1.97
GTAAGTGCTTGGGTTCTAACCTGTTGCAT (site ACCCAGTCTCC) | 0.174
GTAAGTGCTTGGGTTCTAACCTGTTGCAT (site GTAAGTGCTAT) | 0.829
GTAATCCCTTGGGTTCTAACCTGTTGCCA (site GTAATCCCTCG) | 0.173
GTAATCCCTTGGGTTCTAACCTGTTGCCA (site GTAATCCCTTG) | 1.32
GTACAGACTTGGGTTCTAACCTGTTGCCT (site GTACAGACTAG) | 1.43
GTACAGACTTGGGTTCTAACCTGTTGCCT (site GTCCAGACTAG) | 0.0588
GTACAGACTTGGGTTCTAACCTGTTGCCT (site GTGCAGACTAG) | 0.0183
GTACAGACTTGGGTTCTAACCTGTTGCCT (site GTTCAGACTAG) | 0.078
GTACAGGCTTGGGTTCTAACCTGTTGCAG (site GTACAGGCTCT) | 0.808
GTACAGGCTTGGGTTCTAACCTGTTGCAG (site TGACAGGCTCT) | 0.178
GTACGCACTTGGGTTCTAACCTGTTGCCT (site AGTTAGTCTCT) | 0.0249
GTACGCACTTGGGTTCTAACCTGTTGCCT (site GTACGCACTAG) | 0.994
GTAGTAGCTTGGGTTCTAACCTGTTGCCT (site GTAGTAACTAG) | 0.954
GTAGTAGCTTGGGTTCTAACCTGTTGCCT (site GTAGTACCTAG) | 0.0193

Sequence | recombinant barcode read abundance (log10)
GTAGTAGCTTGGGTTCTAACCTGTTGCCT (site GTAGTAGCTAG) | 2.06
GTAGTAGCTTGGGTTCTAACCTGTTGCCT (site GTAGTATCTAG) | 0.492
GTAGTATCTTGGGTTCTAACCTGTTGCCT (site GTAGTAACTAG) | 0.0297
GTAGTATCTTGGGTTCTAACCTGTTGCCT (site GTAGTACCTAG) | 0.115
GTAGTATCTTGGGTTCTAACCTGTTGCCT (site GTAGTAGCTAG) | 0.104
GTAGTATCTTGGGTTCTAACCTGTTGCCT (site GTAGTATCTAG) | 1.96
GTATATACTTGGGTTCTAACCTGTTGCTT (site ACGGGGCCTCG) | 0.0368
GTATATACTTGGGTTCTAACCTGTTGCTT (site GTATATACTAA) | 0.578
GTATCATCTTGGGTTCTAACCTGTTGCCT (site GTATCAACTAG) | 0.126
GTATCATCTTGGGTTCTAACCTGTTGCCT (site GTATCACCTAG) | 0.942
GTATCATCTTGGGTTCTAACCTGTTGCCT (site GTATCAGCTAG) | 0.0191
GTATCATCTTGGGTTCTAACCTGTTGCCT (site GTATCATCTAG) | 0.52
GTATCGTCTTGGGTTCTAACCTGTTGCCT (site GTATCGTCTAG) | 1.69
GTATCGTCTTGGGTTCTAACCTGTTGCCT (site GTATGGTCTAC) | 0.111
GTATCTACTTGGGTTCTAACCTGTTGCCT (site GAATCTACTAG) | 0
GTATCTACTTGGGTTCTAACCTGTTGCCT (site GCATCTACTAG) | 0.0197
GTATCTACTTGGGTTCTAACCTGTTGCCT (site GGATCTACTAG) | 0.25
GTATCTACTTGGGTTCTAACCTGTTGCCT (site GTATCTACTAG) | 0.069
GTATGCCCTTGGGTTCTAACCTGTTGCTA (site GTATCCACTTA) | 0.273
GTATGCCCTTGGGTTCTAACCTGTTGCTA (site GTATGCCCTTA) | 1.12
GTATTAGCTTGGGTTCTAACCTGTTGCCG (site GAATTAGCTCC) | 0.128
GTATTAGCTTGGGTTCTAACCTGTTGCCG (site GTATTAGCTCG) | 1.44

Sequence | recombinant barcode read abundance (log10)
GTCAAACCTTGGGTTCTAACCTGTTGCTG (site GTCAAACCTCA) | 0.974
GTCAAACCTTGGGTTCTAACCTGTTGCTG (site GTCAACCCTCA) | 0.232
GTCAAACCTTGGGTTCTAACCTGTTGCTG (site GTCAAGCCTCA) | 0.0163
GTCAAACCTTGGGTTCTAACCTGTTGCTG (site GTCAATCCTCA) | 0.0782
GTCAAGCCTTGGGTTCTAACCTGTTGCTG (site GTCAAACCTCA) | 0.0753
GTCAAGCCTTGGGTTCTAACCTGTTGCTG (site GTCAACCCTCA) | 0.184
GTCAAGCCTTGGGTTCTAACCTGTTGCTG (site GTCAAGCCTCA) | 1.23
GTCAAGCCTTGGGTTCTAACCTGTTGCTG (site GTCAATCCTCA) | 0.0295
GTCAAGTCTTGGGTTCTAACCTGTTGCTC (site CGACTCCCTAC) | 0.101
GTCAAGTCTTGGGTTCTAACCTGTTGCTC (site GTCAAGTCTGA) | 0.694
GTCAATTCTTGGGTTCTAACCTGTTGCCT (site GACACTTCTAG) | 0.109
GTCAATTCTTGGGTTCTAACCTGTTGCCT (site GTCAATTCTAG) | 0.684
GTCACAACTTGGGTTCTAACCTGTTGCCG (site AGGTTTGCTAA) | 0.056
GTCACAACTTGGGTTCTAACCTGTTGCCG (site GTCACAACTCG) | 0.339
GTCACAGCTTGGGTTCTAACCTGTTGCCT (site GTCAAAGCTTG) | 0.0492
GTCACAGCTTGGGTTCTAACCTGTTGCCT (site GTCACAGCTAG) | 1.23
GTCAGATCTTGGGTTCTAACCTGTTGCTT (site GTCAGATCTAA) | 0.398
GTCAGATCTTGGGTTCTAACCTGTTGCTT (site TCGTTCGCTCG) | 0.0896
GTCAGGGCTTGGGTTCTAACCTGTTGCCT (site GTCAGGGCTAG) | 0.275
GTCAGGGCTTGGGTTCTAACCTGTTGCCT (site GTCATGGCTAG) | 0.197

Reference: the supplement of paper PMC11208160
